Series [1] can be described thus: Octanol-water partition coefficient (method of Fujita et al.). The conditions noted are these: pH 7.4.
Another series can be described thus: Determination of LD50. The conditions noted are these: mouse, in vivo; Balb/c female mice 3-5 months of age; ip (or iv) injection in physiological saline. The procedure:
LD50 is determined in BALB/c female mice (weighing 20-25 g) following intraperitoneal (ip) injection, unless the compound tested has low lipophilicity and is very soluble, wherein intravenous (iv) administration is used. LD50 values at 1, 2, 5, and 60 days are determined by administering graded doses of the drug dissolved in physiological saline immediately prior to injection.

Series [2] is described as follows: physchem. The conditions noted are these: pH 7.4.
Series [3] is described as follows: physchem.

Values after ≈ are worked out from the molar mass of the structure shown. Where a name gives a salt, the structure may show the parent alone.

With `CCN(CC)CCNc1n[n+]([O-])c2cc([N+](=O)[O-])ccc2[n+]1[O-]` [Compound 21, 7-nitro-3-(2-N,N-diethylaminoethylamino)-1,2,4-benzotriazine 1,4-dioxide hydrochloride], the logP (commonly a log measure of how a compound divides between an organic and an aqueous phase) in series [1] is -0.2.

Regarding `Nc1n[n+]([O-])c2cc([N+](=O)[O-])ccc2[n+]1[O-]` [Compound 14, 7-nitro-3-amino-1,2,4-benzotriazine 1,4-dioxide], in “Solubility”, the concentration in solution (solubility) was 2 mM (≈ 446 µg/mL). Moreover, the logP in series [1] (octanol/water) is -0.97. Moreover, in the series “Determination of LD50”, the LD50 (commonly the dose at which mortality reaches 50%) is 1000 µmol/kg.

Consider `Nc1n[n+]([O-])c2ccccc2[n+]1[O-]` [Compound 22], for which the LD50 in “Determination of LD50” is 500 µmol/kg. In the series “physchem [2]”, this compound displayed a logP of -0.32. Moreover, in “physchem [3]”, the concentration in solution (solubility) was 13.5 mM (≈ 2410 µg/mL).

Source of the values: patent EP0478545B1, “1,2,4-BENZOTRIAZINE OXIDES AS RADIOSENSITIZERS AND SELECTIVE CYTOTOXIC AGENTS” (SRI INTERNATIONAL, priority 1989, dated 1991).
